In patent US20050075269A1, “Substituted benzofuran-2-carboxamides derivatives” (priority 2001, published 2005):
Where a name gives a salt, the structure may show the parent alone.

CNCCNC(=O)c1cc2cc(N3CCN(CCCCc4c[nH]c5ccc(C#N)cc45)CC3)ccc2o1 (as salt: hydrochloride) [f), N-(2-methylaminoethyl)-5-{4-[4-(5-cyano-1H-indol-3-yl)butyl]piperazin-1-yl}benzofuran-2-carboxamide]
melting point: > 233 °C
